{"source": "patent US20050181376A1", "about": "“Antisense modulation of microsomal triglyceride transfer protein expression” (ISIS Pharmaceuticals, Inc., priority 2001, published 2005)", "note": "Strand notation (5' to 3'): a small letter for the sugar, then the base; units joined by * are phosphorothioate-linked, units joined directly phosphodiester-linked; [ ] holds rarer units or linkages, { } end groups; capitals alone tell only the bases. e = 2'-O-(2-methoxyethyl) (MOE); [5mC] = 5-methylcytosine; d = 2'-deoxy (DNA)", "data": [{"test_system": "human microsomal triglyceride transfer protein mRNA", "assay": "Antisense inhibition of human microsomal triglyceride transfer protein mRNA levels, quantitative real-time PCR; note: test concentration or dose not given here", "details": "averages from two experiments", "values": [{"substance": "CGCTGTGCTCTCAGAGAGCA (antisense e[5mC]*eG*e[5mC]*eT*eG*dT*dG*d[5mC]*dT*d[5mC]*dT*d[5mC]*dA*dG*dA*eG*eA*eG*e[5mC]*eA) [ISIS 144442]", "% INHIB (inhibition of human microsomal triglyceride transfer protein mRNA levels)": "at least 30%"}, {"substance": "144442 (e[5mC]*eG*e[5mC]*eT*eG*dT*dG*d[5mC]*dT*d[5mC]*dT*d[5mC]*dA*dG*dA*eG*eA*eG*e[5mC]*eA; antisense) [compound 144442]", "% INHIB (inhibition of human microsomal triglyceride transfer protein mRNA levels)": "57%"}, {"substance": "144432 (eT*eA*e[5mC]*e[5mC]*eG*dT*dG*dA*dA*dG*dA*d[5mC]*d[5mC]*dA*dG*e[5mC]*e[5mC]*eT*eT*e[5mC]; antisense) [compound 144432]", "% INHIB (inhibition of human microsomal triglyceride transfer protein mRNA levels)": "0%"}, {"substance": "144429 (e[5mC]*eT*eT*eG*eA*d[5mC]*dG*dT*d[5mC]*d[5mC]*dA*dT*dG*dT*dA*eG*eG*eA*eT*eG; antisense) [compound 144429]", "% INHIB (inhibition of human microsomal triglyceride transfer protein mRNA levels)": "0%"}, {"substance": "144418 (eA*e[5mC]*eA*eG*eT*dG*dG*d[5mC]*dT*d[5mC]*dT*dG*dG*dA*dA*eG*eA*e[5mC]*e[5mC]*eT; antisense) [compound 144418]", "% INHIB (inhibition of human microsomal triglyceride transfer protein mRNA levels)": "0%"}, {"substance": "144430 (e[5mC]*eT*eA*eT*eG*dT*dA*dG*d[5mC]*d[5mC]*dA*dG*dT*dG*dT*eA*eG*eG*e[5mC]*eA; antisense) [compound 144430]", "% INHIB (inhibition of human microsomal triglyceride transfer protein mRNA levels)": "0%"}, {"substance": "144423 (eA*eG*eT*eG*eT*d[5mC]*d[5mC]*d[5mC]*dA*dG*dT*dG*dA*dT*dG*eA*eT*e[5mC]*eA*eT; antisense) [compound 144423]", "% INHIB (inhibition of human microsomal triglyceride transfer protein mRNA levels)": "41%"}, {"substance": "144436 (eG*eA*eG*eG*eA*dG*dT*d[5mC]*d[5mC]*dA*d[5mC]*dT*dG*dT*dG*eA*eT*eG*eT*e[5mC]; antisense) [compound 144436]", "% INHIB (inhibition of human microsomal triglyceride transfer protein mRNA levels)": "29%"}, {"substance": "AATATCACAGGTCAGTTTCA (antisense eA*eA*eT*eA*eT*d[5mC]*dA*d[5mC]*dA*dG*dG*dT*d[5mC]*dA*dG*eT*eT*eT*e[5mC]*eA) [ISIS 144440]", "% INHIB (inhibition of human microsomal triglyceride transfer protein mRNA levels)": "at least 30%"}, {"substance": "144441 (e[5mC]*eA*eT*eG*e[5mC]*d[5mC]*dA*d[5mC]*dA*dT*dT*dG*dT*dG*dT*e[5mC]*e[5mC]*e[5mC]*eT*eT; antisense) [compound 144441]", "% INHIB (inhibition of human microsomal triglyceride transfer protein mRNA levels)": "60%"}, {"substance": "CATGCCACATTGTGTCCCTT (antisense e[5mC]*eA*eT*eG*e[5mC]*d[5mC]*dA*d[5mC]*dA*dT*dT*dG*dT*dG*dT*e[5mC]*e[5mC]*e[5mC]*eT*eT) [ISIS 144441]", "% INHIB (inhibition of human microsomal triglyceride transfer protein mRNA levels)": "at least 30%"}, {"substance": "CCTGGAGGATAATGCTGCTG (antisense e[5mC]*e[5mC]*eT*eG*eG*dA*dG*dG*dA*dT*dA*dA*dT*dG*d[5mC]*eT*eG*e[5mC]*eT*eG) [ISIS 144422]", "% INHIB (inhibition of human microsomal triglyceride transfer protein mRNA levels)": "at least 30%"}, {"substance": "144420 (eG*eA*eG*eG*eT*dG*dA*d[5mC]*dA*dG*d[5mC]*dA*dT*d[5mC]*d[5mC]*eA*e[5mC]*e[5mC]*eA*eG; antisense) [compound 144420]", "% INHIB (inhibition of human microsomal triglyceride transfer protein mRNA levels)": "21%"}, {"substance": "GAGCTTCATATACATTGATC (antisense eG*eA*eG*e[5mC]*eT*dT*d[5mC]*dA*dT*dA*dT*dA*d[5mC]*dA*dT*eT*eG*eA*eT*e[5mC]) [ISIS 144447]", "% INHIB (inhibition of human microsomal triglyceride transfer protein mRNA levels)": "at least 30%"}, {"substance": "GTACTGGTTTCCAGGCCAGC (antisense eG*eT*eA*e[5mC]*eT*dG*dG*dT*dT*dT*d[5mC]*d[5mC]*dA*dG*dG*e[5mC]*e[5mC]*eA*eG*e[5mC]) [ISIS 144437]", "% INHIB (inhibition of human microsomal triglyceride transfer protein mRNA levels)": "at least 30%"}, {"substance": "144421 (eA*eT*eG*eG*e[5mC]*dT*dT*d[5mC]*dT*dA*dA*dT*dG*dA*dG*eT*e[5mC]*eT*eG*eA; antisense) [compound 144421]", "% INHIB (inhibition of human microsomal triglyceride transfer protein mRNA levels)": "13%"}, {"substance": "144448 (e[5mC]*e[5mC]*e[5mC]*eG*eT*d[5mC]*dA*dT*dG*d[5mC]*dT*dT*dA*dA*dG*eG*eA*eA*eG*eT) [compound 144448]", "% INHIB (inhibition of human microsomal triglyceride transfer protein mRNA levels)": "49%"}, {"substance": "AGTGTCCCAGTGATGATCAT (antisense eA*eG*eT*eG*eT*d[5mC]*d[5mC]*d[5mC]*dA*dG*dT*dG*dA*dT*dG*eA*eT*e[5mC]*eA*eT) [ISIS 144423]", "% INHIB (inhibition of human microsomal triglyceride transfer protein mRNA levels)": "at least 30%"}, {"substance": "GATTCCTCCATAGTAAGGCC (antisense eG*eA*eT*eT*e[5mC]*d[5mC]*dT*d[5mC]*d[5mC]*dA*dT*dA*dG*dT*dA*eA*eG*eG*e[5mC]*e[5mC]) [ISIS 144413]", "% INHIB (inhibition of human microsomal triglyceride transfer protein mRNA levels)": "at least 30%"}, {"substance": "144426 (eG*eA*eG*e[5mC]*eA*dG*dT*dG*dG*dT*dA*dG*d[5mC]*d[5mC]*dA*eG*eG*eT*eG*eG; antisense) [compound 144426]", "% INHIB (inhibition of human microsomal triglyceride transfer protein mRNA levels)": "22%"}, {"substance": "144412 (eG*e[5mC]*eG*eG*eT*dA*dG*d[5mC]*d[5mC]*d[5mC]*dA*d[5mC]*dG*d[5mC]*dT*eG*eT*e[5mC]*eT*eT; antisense) [compound 144412]", "% INHIB (inhibition of human microsomal triglyceride transfer protein mRNA levels)": "34%"}, {"substance": "144435 (eG*eA*eT*eA*e[5mC]*d[5mC]*dA*d[5mC]*dA*dA*dG*d[5mC]*dT*dA*dA*eA*e[5mC]*eT*e[5mC]*e[5mC]; antisense) [compound 144435]", "% INHIB (inhibition of human microsomal triglyceride transfer protein mRNA levels)": "0%"}, {"substance": "144440 (eA*eA*eT*eA*eT*d[5mC]*dA*d[5mC]*dA*dG*dG*dT*d[5mC]*dA*dG*eT*eT*eT*e[5mC]*eA; antisense) [compound 144440]", "% INHIB (inhibition of human microsomal triglyceride transfer protein mRNA levels)": "40%"}, {"substance": "144445 (eG*eA*eT*eT*eT*dG*dA*dG*dA*dG*dA*dG*dG*dT*dA*eT*eA*eA*eG*eT; antisense) [compound 144445]", "% INHIB (inhibition of human microsomal triglyceride transfer protein mRNA levels)": "18%"}, {"substance": "144447 (eG*eA*eG*e[5mC]*eT*dT*d[5mC]*dA*dT*dA*dT*dA*d[5mC]*dA*dT*eT*eG*eA*eT*e[5mC]; antisense) [compound 144447]", "% INHIB (inhibition of human microsomal triglyceride transfer protein mRNA levels)": "70%"}, {"substance": "CCCGTCATGCTTAAGGAAGT (antisense e[5mC]*e[5mC]*e[5mC]*eG*eT*d[5mC]*dA*dT*dG*d[5mC]*dT*dT*dA*dA*dG*eG*eA*eA*eG*eT) [ISIS 144448]", "% INHIB (inhibition of human microsomal triglyceride transfer protein mRNA levels)": "at least 30%"}, {"substance": "144409 (eT*e[5mC]*eA*eT*eA*dT*dT*dG*dA*d[5mC]*d[5mC]*dA*dG*d[5mC]*dA*eA*eT*e[5mC]*e[5mC]*eT; antisense) [compound 144409]", "% INHIB (inhibition of human microsomal triglyceride transfer protein mRNA levels)": "31%"}, {"substance": "144434 (e[5mC]*e[5mC]*e[5mC]*eT*eG*dG*dA*d[5mC]*d[5mC]*dT*d[5mC]*dT*dA*dT*dA*eT*eT*eG*eG*e[5mC]; antisense) [compound 144434]", "% INHIB (inhibition of human microsomal triglyceride transfer protein mRNA levels)": "0%"}, {"substance": "144417 (eG*e[5mC]*eT*eG*e[5mC]*dA*dG*d[5mC]*d[5mC]*dT*dG*d[5mC]*dT*dT*dT*e[5mC]*e[5mC]*eA*eG*eA; antisense) [compound 144417]", "% INHIB (inhibition of human microsomal triglyceride transfer protein mRNA levels)": "9%"}, {"substance": "GTAGCATACTGCATATACCC (antisense eG*eT*eA*eG*e[5mC]*dA*dT*dA*d[5mC]*dT*dG*d[5mC]*dA*dT*dA*eT*eA*e[5mC]*e[5mC]*e[5mC]) [ISIS 144443]", "% INHIB (inhibition of human microsomal triglyceride transfer protein mRNA levels)": "at least 30%"}, {"substance": "144425 (e[5mC]*e[5mC]*e[5mC]*eT*eT*d[5mC]*dT*d[5mC]*d[5mC]*dT*dG*d[5mC]*dT*dT*d[5mC]*eT*eG*e[5mC]*eA*eT; antisense) [compound 144425]", "% INHIB (inhibition of human microsomal triglyceride transfer protein mRNA levels)": "22%"}, {"substance": "144416 (eA*eG*eG*eT*eG*dG*dT*dG*dA*d[5mC]*dA*dG*dA*dT*dG*eT*eA*eG*e[5mC]*eT; antisense) [compound 144416]", "% INHIB (inhibition of human microsomal triglyceride transfer protein mRNA levels)": "27%"}, {"substance": "144413 (eG*eA*eT*eT*e[5mC]*d[5mC]*dT*d[5mC]*d[5mC]*dA*dT*dA*dG*dT*dA*eA*eG*eG*e[5mC]*e[5mC]; antisense) [compound 144413]", "% INHIB (inhibition of human microsomal triglyceride transfer protein mRNA levels)": "91%"}, {"substance": "CGCTGGAAGTACTATCCGGC (antisense e[5mC]*eG*e[5mC]*eT*eG*dG*dA*dA*dG*dT*dA*d[5mC]*dT*dA*dT*e[5mC]*e[5mC]*eG*eG*e[5mC]) [ISIS 144439]", "% INHIB (inhibition of human microsomal triglyceride transfer protein mRNA levels)": "at least 30%"}, {"substance": "144449 (eA*eT*eG*eT*eG*d[5mC]*d[5mC]*dT*dT*d[5mC]*dT*dA*d[5mC]*d[5mC]*dT*eT*eA*eA*eG*eG) [compound 144449]", "% INHIB (inhibition of human microsomal triglyceride transfer protein mRNA levels)": "35%"}, {"substance": "CAGTGCCCAGCTAGGAGTCA (antisense e[5mC]*eA*eG*eT*eG*d[5mC]*d[5mC]*d[5mC]*dA*dG*d[5mC]*dT*dA*dG*dG*eA*eG*eT*e[5mC]*eA) [ISIS 144407]", "% INHIB (inhibition of human microsomal triglyceride transfer protein mRNA levels)": "at least 30%"}, {"substance": "144428 (eG*e[5mC]*eA*eG*e[5mC]*dT*dG*d[5mC]*dA*dG*d[5mC]*dA*dG*dT*dG*e[5mC]*eG*e[5mC]*eA*e[5mC]; antisense) [compound 144428]", "% INHIB (inhibition of human microsomal triglyceride transfer protein mRNA levels)": "19%"}, {"substance": "144411 (eA*e[5mC]*eG*eT*eG*dA*dG*d[5mC]*dT*dT*dG*dT*dA*d[5mC]*dA*eG*e[5mC]*e[5mC]*eG*eG; antisense) [compound 144411]", "% INHIB (inhibition of human microsomal triglyceride transfer protein mRNA levels)": "28%"}, {"substance": "144446 (eG*eA*eG*eA*eA*dT*dA*dA*d[5mC]*dT*dA*dT*dT*d[5mC]*dT*eG*eA*e[5mC]*eT*eG; antisense) [compound 144446]", "% INHIB (inhibition of human microsomal triglyceride transfer protein mRNA levels)": "28%"}, {"substance": "144427 (eT*eA*eA*eG*eG*dT*d[5mC]*dT*dT*d[5mC]*dT*dT*d[5mC]*dA*d[5mC]*e[5mC]*eT*e[5mC]*eA*eT; antisense) [compound 144427]", "% INHIB (inhibition of human microsomal triglyceride transfer protein mRNA levels)": "8%"}, {"substance": "144444 (eG*eA*eT*eG*eA*dT*dT*d[5mC]*dA*dA*dA*dA*dT*dG*dA*e[5mC]*eG*e[5mC]*eT*eG; antisense) [compound 144444]", "% INHIB (inhibition of human microsomal triglyceride transfer protein mRNA levels)": "32%"}, {"substance": "144408 (eT*e[5mC]*eA*eA*e[5mC]*dT*dG*d[5mC]*dA*dT*d[5mC]*d[5mC]*dA*dG*dT*eG*e[5mC]*e[5mC]*e[5mC]*eA; antisense) [compound 144408]", "% INHIB (inhibition of human microsomal triglyceride transfer protein mRNA levels)": "30%"}]}]}
